# Patent US20240026461A1, “BCL10 MUTATIONS AS BIOMARKERS FOR TARGETED THERAPY IN B CELL LYMPHOMAS” (priority 2022, published 2024)
# Assays:
# [1] = test system: BCL10^E140X ABC-DLBCL xenografts; test: Xenograft, JNJ-67690246 treatment, BCL10^E140X tumors; type: in vivo, mice; settings: OCI-Ly10 cell line, p.o. 100 mg/kg twice per day
# Text: FIG. 7A-7K illustrate that subjects with BCL10 truncating mutant lymphomas are hypersensitive to MALT1 protease inhibitors. FIG. 7A graphically illustrates growth inhibition of human diffuse large B-cell lymphoma (HBL1) cells and OCI-Ly10 lymphoma cells expressing wild type or mutant BCL10 proteins in response to MALT1 inhibitor C3. X axis, concentration of compound (M); Y axis, inhibition of cell growth normalized to vehicle treated cells. **p<0.01; ***p<0.001; ****p<0.0001; ns, not significant. […] FIG. 7D graphically illustrates luciferase activity measured in the MALT1 GloSensor reporter cell lines treated with MALT1 inhibitor C3. […] FIG. 7E graphically illustrates luciferase activity measured in the MALT1 GloSensor reporter cell lines treated with MALT1 inhibitor MLT-748. […] FIG. 7F graphically illustrates luciferase activity measured in the MALT1 GloSensor reporter cell lines treated with MALT1 inhibitor JNJ-67690246. […] AUC was calculated with Prism. *p<0.05. FIG. 7J graphically illustrates tumor weight measured at the endpoint of the studies described in FIG. 7G-7I. *p<0.05.
# All mice experiments were approved by Institutional Animal Care & Use Committee (IACUC) at Weill Cornell Medicine and were performed following the IACUC guidelines. […] Tumor volume was monitored 2˜3 times/week with digital caliper and calculated using the following formula. smallest diameter^2×largest diameter×0.5. […]
# [2] = test system: isogenic ABC-DLBCL cells expressing BCL10^WT, BCL10^R58Q and BCL10^E140X; test: Growth inhibition of isogenic ABC-DLBCL cells, response described in words; type: cell-based, human; settings: 96 hours
# Protocol: (§1) DLBCL cell lines were cultured in exponential condition and the cell growth was determined by CellTiter Glo (Promega). 3000-5000 cells were seeded and cultured in each well of 384 well plate for 96 h and treated with compounds every 48 h. Luminescence was read at the endpoint with the Synergy NEO microplate reader (BioTek). The value of compound treated cells was normalized to their vehicle treated controls and then used to calculate IC50 in GraphPad Prism (RRID:SCR_002798).
# (§2) Given the distinct functional profiles, CARD11 dependencies, and MALT1 activation effects of the BCL10 CARD and truncation mutants, the inventors designed experiments to evaluate whether, and to what extent, these mutant BCL10 proteins might confer BTK inhibitor resistance. Isogenic ABC-DLBCL cells expressing BCL10WT, BCL10^R58Q and BCL10^E140X proteins were treated with escalating doses of three chemically distinct covalent BTK inhibitors: ibrutinib, acalabrutinib, or zanubrutinib. The cellular proliferation rates of the treated cells were measured using an ATP fluorescence assay after 96 hours of drug exposure.
# (§3) Isogenic BCL10^WT, BCL10^R58Q and BCL10^E140X ABC-DLBCLs were exposed to increasing concentrations of each of these compounds for 96 hours.
# HBL1^R58Q = test: Growth inhibition assay (CellTiter Glo), HBL1 cells expressing BCL10 R58Q; type: cell-based; settings: Homo sapiens, 96 h, read-out: IC50, growth inhibition, MALT1 inhibitors
# Protocol: as §1, §2, §3
smiles,measurement,setting,value
Cc1nc(-n2nccn2)c(Cl)cc1NC(=O)c1cnn(-c2cccc3c(=O)[nH]ccc23)c1C(F)(F)F [JNJ-67690246],growth of lymphoma xenografts,[1],significant reduction in growth
same,growth response in words,[2]; BCL10^R58Q ABC-DLBCL cells,generally sensitive
same,growth response in words,[2]; BCL10^WT ABC-DLBCL cells,generally sensitive
same,IC50,HBL1^R58Q,5.77 ± 3.02 µM
